For data set [1], the system named is Human immunodeficiency virus 1. The data set can be described thus: Antiviral activity against HIV1 RES056 harboring RT K103N,Y181C double mutant infected in human MT4 cells assessed as inhibition of virus-induced cytopathicity measured 5 days post viral infection by MTT assay. The format is functional, organism-based. The settings on record: Human immunodeficiency virus 1, RES056, MT4, 120 h.

A short description of data set [2]: Selectivity index, ratio CC50 for human MT4 cells to EC50 for HIV 1 3B.
Data set [3] concerns Human immunodeficiency virus 1. Kind of data set: Antiviral activity against HIV1 3B infected in human MT4 cells assessed as inhibition of virus-induced cytopathicity measured 5 days post viral infection by MTT assay. The format is functional, organism-based. The settings on record: Human immunodeficiency virus 1, 3B, MT4, 120 h. A general note: Protection from cytopathic effect is a common read-out in antiviral testing.

For data set [4], the system named is Human immunodeficiency virus 2. The data set can be described thus: Antiviral activity against HIV2 ROD infected in human MT4 cells assessed as inhibition of virus-induced cytopathicity measured 5 days post viral infection by MTT assay. To be noted: Human immunodeficiency virus 2, ISOLATE ROD, MT4, 120 h. Type of data set: functional, organism-based.
Data set [5] in a line: Cytotoxicity against human MT4 cells by MTT assay. Type of data set: cell-based. In general terms: Tetrazolium assays rely on reduction of a dye to a coloured formazan, in cell work by metabolically active cells.

Molecules are shown by their SMILES. pEC50: −log10 of the molar value.

As a reminder, the pEC50 is −log10 of the EC50, conventionally taken in molar units. In general, CC50 refers to the concentration giving 50% cytotoxicity. A high value points to lower toxicity to the cells.

Take `N#Cc1ccc(Nc2nccc(C(Cl)c3cccc(Cl)c3)n2)cc1` (stereo not given): the pEC50 in data set [1] was < 4.61; in data set [3] it was 8.30; in data set [4], < 4.61. In data set [2] (MT4 cells), the selectivity ratio amounted to 5160. The same molecule showed a CC50 in data set [5] of 24.3 µM.

Take `N#Cc1ccc(Nc2nccc(C(Br)c3ccccc3)n2)cc1` (stereo not given): the figures for the pEC50 in data set [1], in data set [3] and in data set [4] were < 4.16, 6.70 and < 4.16, respectively. Besides, the selectivity ratio in data set [2] (MT4 cells) stood at 348. This molecule also came in with a CC50 in data set [5] of 69 µM.

Regarding `N#Cc1ccc(Nc2nccc(C(Cl)c3ccc(F)cc3)n2)cc1` (stereo not given), the values for the negative-log EC50 (pEC50) in data set [1], in data set [3] and in data set [4] were < 4.45, 5.74 and < 4.45, respectively. Moreover, in data set [2] (MT4 cells), the selectivity ratio stood at 19. Besides, in data set [5], the midpoint of cytotoxicity, the CC50, lay at 35.4 µM.

As to `CC(C)Nc1cccnc1N1CCN(C(=O)c2cc3cc(NS(C)(=O)=O)ccc3[nH]2)CC1` [DELAVIRDINE], the pEC50 in data set [1] was < 4.36; in data set [3] it was 7.07. For the same molecule, in data set [2] (MT4 cells), the selectivity ratio was > 511. Besides, the CC50 in data set [5] was > 43.8 µM.

For the molecule `Cc1ccc(C(Cl)c2ccnc(Nc3ccc(C#N)cc3)n2)cc1` (stereo not given), the results for the pEC50 in data set [1], in data set [3] and in data set [4] were < 4.30, 7.16 and < 4.30, respectively. In addition, in data set [2] (MT4 cells), the selectivity ratio was 713. Further, the half-maximal cytotoxic concentration (CC50) in data set [5] is 49.7 µM.

`COc1ccc(C(Cl)c2ccnc(Nc3ccc(C#N)cc3)n2)cc1` (stereo not given): the pEC50 was < 4.47 in data set [1], 6.66 in data set [3] and < 4.47 in data set [4]. The CC50 in data set [5] is ≥ 33.6 µM.

As for `Nc1ccn([C@@H]2CS[C@H](CO)O2)c(=O)n1` [LAMIVUDINE], in data set [2] (mt4), the selectivity ratio was > 36. The pEC50 is 5.61 in data set [3] and 5.14 in data set [4]. Moreover, the half-maximal cytotoxic concentration (CC50) in data set [5] was > 87.2 µM.

As for `Cc1cc(C(Cl)c2ccc(C(C)(C)C)cc2)nc(Nc2ccc(C#N)cc2)n1` (stereo not given), the pEC50 in data set [1] is < 4.52; in data set [3] it was 6.76; in data set [4] it was < 4.52. Further, the selectivity ratio in data set [2] (MT4 cells) was 173. The molecule also had a half-maximal cytotoxic concentration (CC50) in data set [5] of 30.3 µM.

For the molecule `Cc1cnc(Nc2ccc(C#N)cc2)nc1C(Cl)c1ccc(F)cc1` (stereo not given), the pEC50 in data set [1] was < 4.51; in data set [3], 5.10; in data set [4], < 4.51. The selectivity ratio in data set [2] (MT4 cells) worked out at 4. Moreover, the midpoint of cytotoxicity in data set [5], the CC50, lay at 30.8 µM.

As for `Cc1cc(C(Cl)c2ccc(Br)cc2)nc(Nc2ccc(C#N)cc2)n1` (stereo not given), the figures for the pEC50 in data set [1], in data set [3] and in data set [4] were < 4.50, 6.36 and < 4.50, respectively. The selectivity ratio in data set [2] (MT4 cells) was 75. This molecule had a CC50 in data set [5] of 31.9 µM.

Turning to `N#Cc1ccc(Nc2nccc(C(Cl)c3ccc(Br)cc3)n2)cc1` (stereo not given), the negative-log EC50 (pEC50) is < 4.49 in data set [1], 7.42 in data set [3] and < 4.49 in data set [4]. The selectivity ratio in data set [2] (MT4 cells) amounted to 875. Half-maximal cytotoxicity in data set [5] (CC50) was put at 32.5 µM.

`N#Cc1ccc(Nc2nccc(C(Cl)c3cccc4ccccc34)n2)cc1` (stereo not given): the negative logarithm of the EC50 (pEC50) in data set [1] was < 4.95; in data set [3], 6.69; in data set [4] it was < 4.95. The selectivity ratio in data set [2] (MT4 cells) was 56. This molecule also came in with a CC50 in data set [5] of 11.3 µM.

For `Cc1cc(C#N)cc(C)c1Oc1nc(Nc2ccc(C#N)cc2)nc(N)c1Br` [ETRAVIRINE], the pEC50 was 7.83 in data set [1] and < 4.85 in data set [4]. In addition, the selectivity ratio in data set [2] (mt4) turned out to be 7380. The molecule further came in with a CC50 in data set [5] of 14.2 µM.

In the case of `Cc1cc(C(Cl)c2ccc(F)cc2)nc(Nc2ccc(C#N)cc2)n1` (stereo not given), the pEC50 in data set [1] was < 4.51; in data set [3], 5.23; in data set [4], < 4.51. Moreover, the selectivity ratio in data set [2] (MT4 cells) is 5. In addition, in data set [5], half-maximal cytotoxicity (CC50) was put at 31.1 µM.

As to `N#Cc1ccc(Nc2nccc(C(Cl)c3cccc(Br)c3)n2)cc1` (stereo not given), the negative logarithm of the EC50 (pEC50) in data set [1] was 5.09; in data set [3], 8.05; in data set [4] it was < 4.52. The selectivity ratio in data set [2] (MT4 cells) was 3110. In data set [5], this molecule showed a CC50 of 30.4 µM.

For `Cc1ccnc2c1NC(=O)c1cccnc1N2C1CC1` [NEVIRAPINE], in data set [1], the pEC50 was < 4.82. Further, in data set [2] (MT4 cells), the selectivity ratio was > 163.

In the case of `Cc1cnc(Nc2ccc(C#N)cc2)nc1C(Cl)c1ccc(Br)cc1` (stereo not given), the negative-log EC50 (pEC50) was < 4.99 in data set [1], 6.96 in data set [3] and < 4.99 in data set [4]. Also, in data set [2] (MT4 cells), the selectivity ratio is 95. Besides, the CC50 in data set [5] came to 10.3 µM.

Take `O=C1Nc2ccc(Cl)cc2[C@@](C#CC2CC2)(C(F)(F)F)O1` [EFAVIRENZ]: in data set [1], the negative-log EC50 (pEC50) was 6.57. In addition, the selectivity ratio in data set [2] (mt4) is > 1140. In data set [5], the CC50 was > 6.3 µM.

Turning to `N#Cc1ccc(Nc2nccc(C(Cl)c3cccc(F)c3)n2)cc1` (stereo not given), the pEC50 was < 4.43 in data set [1], 5.87 in data set [3] and < 4.43 in data set [4]. Further, in data set [2] (MT4 cells), the selectivity ratio came to 27. The molecule further showed a 50% cytotoxic concentration (CC50) in data set [5] of 36.8 µM.

With `Cc1cn([C@H]2C[C@H](N=[N+]=[N-])[C@@H](CO)O2)c(=O)[nH]c1=O` [ZIDOVUDINE], the results for the pEC50 in data set [1] and in data set [4] were 8.15 and 8.30, respectively. Besides, in data set [2] (mt4), the selectivity ratio was > 17000. Moreover, the cytotoxic concentration (CC50) in data set [5] is > 93.5 µM.

`Cc1ccc(C(Br)c2ccnc(Nc3ccc(C#N)cc3)n2)cc1` (stereo not given): the pEC50 in data set [1] is < 4.50; in data set [3], 7.33; in data set [4], < 4.50. In addition, the selectivity ratio in data set [2] (MT4 cells) was 672. The molecule further returned a CC50 in data set [5] of 31.5 µM.

For the molecule `N#Cc1ccc(Nc2nccc(C(Cl)c3ccccc3)n2)cc1` (stereo not given), the negative logarithm of the EC50 (pEC50) is < 4.42 in data set [1], 7.80 in data set [3] and < 4.42 in data set [4]. Moreover, in data set [2] (MT4 cells), the selectivity ratio turned out to be 2340. This molecule registered a CC50 in data set [5] of 37.8 µM.

Consider `N#Cc1ccc(Nc2nccc(C(Cl)c3ccc(Cl)cc3)n2)cc1` (stereo not given), for which the pEC50 was < 4.44 in data set [1], 7.17 in data set [3] and < 4.44 in data set [4]. For the same molecule, the selectivity ratio in data set [2] (MT4 cells) amounted to 545. In data set [5], this molecule had a CC50 of 36.1 µM.

On to `Cc1cnc(Nc2ccc(C#N)cc2)nc1C(Cl)c1ccc(C(C)(C)C)cc1` (stereo not given), for which the figures for the pEC50 in data set [1], in data set [3] and in data set [4] were < 4.54, 5.75 and < 4.54, respectively. The selectivity ratio in data set [2] (MT4 cells) came to 16. The molecule also showed a CC50 in data set [5] of 28.7 µM.

As to `CC(C)(C)c1ccc(C(Cl)c2ccnc(Nc3ccc(C#N)cc3)n2)cc1` (stereo not given), the negative-log EC50 (pEC50) was < 4.48 in data set [1], 6.77 in data set [3] and < 4.48 in data set [4]. Further, the selectivity ratio in data set [2] (MT4 cells) stood at 193. For the same molecule, the CC50 in data set [5] turned out to be 32.9 µM.

(Values after ChEMBL document CHEMBL3286216, “Synthesis and biological evaluation of CHX-DAPYs as HIV-1 non-nucleoside reverse transcriptase inhibitors” (Bioorg Med Chem, 2014).)
